This note sets out measurements from patent US20030055084A1, “Pharmaceutical compounds and methods of use thereof” (Millennium Pharmaceutical, Inc., priority 2001, published 2003).

Structures are written as SMILES. pIC50: −log10 of the molar value.

This experiment relates to Leukotriene B4 production in ionophore-stimulated human whole blood. In words: Inhibition of leukotriene B4 production in ionophore-stimulated human whole blood. The format is cell-based. To be noted: calcium ionophore stimulated, LTB4 by EIA, read-out: HWB IC50. On the procedure: Inhibition of Leukotriene B4 Production in lonophore-Stimulated Human Whole Blood
Human blood was drawn into heparinized blood collection tubes, and aliquoted in 1 ml portions into 1.5 ml microfuge tubes. Test compound ([…]) of varying concentrations, dissolved in DMSO, was added to the blood sample and incubated for 15 minutes at 37° C. Calcium ionophore ([…]) in DMSO was added to a final concentration of […], and the samples were incubated for 30 minutes at 37° C. Samples are then centrifuged at 1100×g (2500 rpm, H1000B rotor, in a Sorvall centrifuge) for 10 minutes at 4° C. Supernatant ([…]) was transferred into 1 1.5 ml microfuge tube, […] of cold methanol added, and proteins precipitated on ice for 30 minutes. The samples were centrifuged at 110×g for 10 minutes at 4° C., and the supernatant assayed for LTB4 using a commercially available EIA kit (Cayman Chemical) according to manufacturer's specifications. The following IC50 results (nM) were obtained for the specified compounds having the structures as indicated for the corresponding compound number.
As usually defined, the pIC50 is −log10 of the IC50, conventionally taken in molar units. Consider `NC(=O)N(O)CCC#C[C@@H]1CC[C@@H](c2cc3ccccc3s2)O1` [Compound 2A], for which the pIC50 was 6.95.
As for `NC(=O)N(O)CCC#C[C@H]1CC[C@@H](c2cc3ccccc3s2)O1` [Compound 2B], the figure is 6.06; as for `C[C@@H](C#C[C@@H]1CC[C@@H](c2cc3ccccc3s2)O1)N(O)C(N)=O` [Compound 3], 6.71.
To `NC(=O)N(O)CCC#C[C@@H]1CC[C@H](c2cc3cc(C(F)(F)F)ccc3o2)O1` [Compound 4B] belongs 6.53.
Consider `NC(=O)N(O)CCC#C[C@@H]1CCC(c2cc3cc(F)ccc3o2)O1` (stereo partly drawn) [Compound 6A], for which the negative-log IC50 (pIC50) was 7.00.
Consider `NC(=O)N(O)CCC#C[C@H]1CCC(c2cc3cc(F)ccc3o2)O1` (stereo partly drawn) [Compound 6B], for which the negative logarithm of the IC50 (pIC50) was 6.41.
